Data set [1] deals with nicotinic receptors containing the α7 subunit (Rattus norvegicus, UniProt Q05941). The data set is described as follows: biochemical. Type of data set: binding.

Structures can show the parent of a compound that is named as a salt.

nicotinic receptors containing the α7 subunit, sequence (Q05941 23-502): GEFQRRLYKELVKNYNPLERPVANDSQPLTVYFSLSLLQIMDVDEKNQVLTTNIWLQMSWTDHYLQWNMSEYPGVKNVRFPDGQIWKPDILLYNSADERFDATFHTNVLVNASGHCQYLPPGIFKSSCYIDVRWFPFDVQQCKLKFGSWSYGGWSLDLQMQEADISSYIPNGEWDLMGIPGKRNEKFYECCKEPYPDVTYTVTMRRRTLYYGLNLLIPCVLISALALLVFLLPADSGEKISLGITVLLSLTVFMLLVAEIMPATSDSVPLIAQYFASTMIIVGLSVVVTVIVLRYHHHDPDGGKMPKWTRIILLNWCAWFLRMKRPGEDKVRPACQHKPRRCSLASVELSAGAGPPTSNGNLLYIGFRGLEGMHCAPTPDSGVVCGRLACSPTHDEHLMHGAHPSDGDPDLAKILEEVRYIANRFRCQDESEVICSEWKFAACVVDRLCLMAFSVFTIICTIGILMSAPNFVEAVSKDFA

For the compound `c1c[nH]c(-c2ccc(C34CCCN(CC3)C4)nn2)c1` (stereo not drawn), the melting point (as a rule, the temperature, or range, at which the solid turns liquid) is 207 to 209 °C. Same read-out and setting: to `c1c[nH]c(-c2ccc(C34CCCN(CC3)C4)nn2)n1` (stereo not drawn) (as salt: HBr) belongs 290 to 292 °C. Still for that read-out and setting: next, `c1n[nH]cc1-c1ccc(C23CCCN(CC2)C3)nn1` (stereo not drawn) (as salt: HBr) [20]: 221 to 223 °C; `c1n[nH]cc1-c1ccc(C23CCCN(CC2)C3)nn1` (stereo not drawn) (as salt: HBr) [22]: 295 to 297 °C. In the case of `c1cc(-c2ccc(C34CCCN(CC3)C4)nn2)co1` (stereo not drawn) (as salt: HCl), the melting point fell in the range of 226 to 228 °C. `c1nc(-c2ccc(C34CCCN(CC3)C4)nn2)c[nH]1` (stereo not drawn) (as salt: HCl) [18] displayed a melting point of 271 to 273 °C. Regarding `c1cncc(-c2ccc(C34CCCN(CC3)C4)nn2)c1` (racemic), the melting point lay in the range of 131 to 133 °C.

Turning to `c1cc(-c2ccc(C34CCCN(CC3)C4)nn2)co1` (racemic), the melting point was in the range of 140 to 141 °C. Still for that read-out and setting: to `Clc1ccc(C23CCCN(CC2)C3)nn1` (racemic) (as salt: HCl) belongs 234 to 235 °C. Take `COc1ccc(-c2ccc(C34CCCN(CC3)C4)nn2)cc1` (racemic) (as salt: HCl) [Compound 7]: the melting point lay in the range of 229 to 231 °C.

The compound `c1coc(-c2ccc(C34CCCN(CC3)C4)nn2)c1` (racemic) (as salt: HCl) [Compound 8] displayed a melting point of 274 to 275 °C. Turning to `Cc1csc(-c2ccc(C34CCCN(CC3)C4)nn2)c1` (racemic) [Compound 3], the melting point lay within 139 to 140 °C. In data set [1], the IC50 (in general, the concentration that inhibits the measured activity by half) was found to be 428 nM.

Regarding `COc1ccc(-c2ccc(C34CCCN(CC3)C4)nn2)cc1` (racemic) [Compound 7], in data set [1], the IC50 worked out at 164 nM.

As to `c1coc(-c2ccc(C34CCCN(CC3)C4)nn2)c1` (racemic) [Compound 8], in data set [1], 442 nM corresponded to half-maximal inhibition (IC50).

The values are drawn from patent US8557819B2 (priority 2005, dated 2013).
